Source: patent publication US6362319B1, “Glial cell line-derived neurotrophic factor” (Amgen Inc., priority 1991, dated 2002)

Experiments:
[1] = molecular target: monoamine transporter on dopaminergic neurons (Rattus norvegicus, UniProt P23977); conditions: 0.5 mM inhibitor in uptake buffer
Description: The functional status of the dopaminergic neurons may be assayed in these cultures by measuring dopamine uptake through specific “scavenger” transporters in the dopaminergic neurons and by counting the number of neurons positive for the dopamine synthetic enzyme tyrosine hydroxylase using immunohistochemistry.

[2] = system: serotonergic neurons in rat embryo mesencephalic cultures; assay: 3H-serotonin uptake in mesencephalic cultures; assay type: cell-based; conditions: 10 μM inhibitor
Experimental: FIGS. 24A-B depicts the specificity of GDNF to dopaminergic neurons. Cultures were prepared as described in Example 1B. GDNF was added on the day of plating, and uptake was measured after 6 days in vitro. A depicts dopamine uptake and B depicts serotonin uptake.
In the presence of 10 μM citalpram (obtained from Dr. C. Mytilineou, Mount Sinai School of Medicine), a known potent inhibitor of serotonin uptake in serotonin neurons, the ^3H-serotonin uptake was reduced to 15%.

[3] = system: GABA neurons in mesencephalic cultures; assay: 14C-GABA uptake in mesencephalic cultures; assay type: cell-based, rat; conditions: 1 mM inhibitor
Experimental: FIGS. 21A-C depicts the specificity of GDNF to dopaminergic neurons. Cultures were established as described in Example 1B. GDNF was added on the day of plating. A. ^3H-DA uptake was measured after seven days in vitro. B. ^14C-GABA uptake was measured after eight days in vitro. Cells were incubated and treated as for ^3H-DA uptake, except the uptake buffer consists of Kreb-Ringer's phosphate buffer, pH 7.4, containing 5.6 mM glucose, 1.3 mM EDTA, 10 μM amino-oxyacetic acid (to prevent GABA breakdown), 2 mM β-alanine (to inhibit glia uptake of GABA) and 0.1 μM ^14C-GABA (150 mCi/mmole, New England Nuclear, Boston, Mass.). In the presence of 1 mM diaminobutyric acid (DABA), a potent inhibitor of ^14C-GABA uptake into GABA neurons, the ^14C-uptake was reduced to 10%. Control values in the presence of DABA were subtracted from experimental values.
H^3-dopamine (^3H-DA) and ^14C-GABA uptake were measured in sister cultures of mesencephalic cells which had been grown with various concentrations of GDNF for 15 and 16 days, respectively. As described above, GDNF enhanced the ^3H-DA uptake capacity of mesencephalic dopamine neurons ˜150% over control without GDNF (FIG. 21A). […] This is also illustrated by the increase in the ^3H-DA/^14C-GABA uptake ratio calculated (FIG. 21C).

[4] = system: serotonergic neurons in rat embryo mesencephalic cultures; conditions: Casper et al. 1991; cited from earlier work
[5] = system: dopaminergic neurons in rat embryo (E16) mesencephalic cell cultures; conditions: Casper et al. 1991; cited from earlier work
[6] = system: GABA neurons in mesencephalic cultures; conditions: Casper et al. 1991; cited from earlier work

Chain of monoamine transporter on dopaminergic neurons (P23977 whole entry): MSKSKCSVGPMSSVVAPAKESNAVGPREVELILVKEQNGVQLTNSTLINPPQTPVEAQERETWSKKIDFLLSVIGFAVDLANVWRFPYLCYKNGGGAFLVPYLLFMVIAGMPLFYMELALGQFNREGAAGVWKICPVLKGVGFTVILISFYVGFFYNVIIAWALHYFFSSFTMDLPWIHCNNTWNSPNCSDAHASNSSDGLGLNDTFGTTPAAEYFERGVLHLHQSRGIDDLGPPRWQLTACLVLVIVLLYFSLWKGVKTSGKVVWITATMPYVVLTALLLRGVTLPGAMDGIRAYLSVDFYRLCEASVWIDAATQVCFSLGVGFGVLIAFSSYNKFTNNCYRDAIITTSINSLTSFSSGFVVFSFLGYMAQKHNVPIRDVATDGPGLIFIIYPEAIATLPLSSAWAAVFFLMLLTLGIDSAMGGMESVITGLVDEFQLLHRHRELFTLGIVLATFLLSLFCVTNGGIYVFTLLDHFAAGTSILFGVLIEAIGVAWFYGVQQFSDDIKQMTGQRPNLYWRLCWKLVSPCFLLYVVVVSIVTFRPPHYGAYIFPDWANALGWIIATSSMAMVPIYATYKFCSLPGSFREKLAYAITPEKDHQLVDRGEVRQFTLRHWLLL

In the case of `Fc1ccc(C(OCCN2CCN(CCCc3ccccc3)CC2)c2ccc(F)cc2)cc1` [GBR12909], the “blank 3H-DA uptake as % of uptake in untreated control cultures” value [1] is reported as “less than 5%”.
For `CN(C)CCCC1(c2ccc(F)cc2)OCc2cc(C#N)ccc21` (stereo not drawn) [citalpram, reference compound], the “3H-serotonin uptake remaining in presence of inhibitor” value [2] was 15%.
For `NCCC(N)C(=O)O` (stereo not drawn) [diaminobutyric acid (DABA), diaminobutyric acid, reference compound], the “14C-uptake remaining in presence of inhibitor” value [3] was 10%.
For “epidermal growth factor (NSDSECPLSHDGYCLHDGVCMYIEALDKYACNCVVGYIGERCQYRDLKWWELR; Epidermal growth factor; UniProt P01133 971-1023, looked up) [EGF, non-specific factor increasing dopamine, serotonin and GABA uptake]”, the “effect on serotonin uptake” value [4] is given as “increase serotonin uptake”, the “effect on dopamine uptake” value [5] is given as “increase dopamine uptake” and the “effect on GABA uptake” value [6] is given as “increase”.
